# Like-named read-outs stand apart in the source and are kept apart here.
# Assay: Plasma pharmacokinetics of lorlatinib at steady state (LC-MS/MS, non-compartmental analysis)
# Assay type: in vivo, human
# Conditions: for Lambda_z: in h-1 (unit assumed); for Tlag: unit assumed; for Cmax: read-out: Cmax; for AUC: read-out: AUC_TAU
# Excerpt: Lorlatinib was isolated from human plasma by a liquid-iquid extraction procedure. […] A linear-log trapezoidal method was used [NT] A best-fit method was used to estimate terminal elimination and to extrapolate any plasma concentration versus time profiles to compute [NT].
# [1] = Cycle 1 Day 15, Cohort A1, 115 mg/m2 per dose, individual patients
# [2] = Cycle 1 Day 15, Cohort A1, 115 mg/m2 per dose, individual patients, in h (unit assumed)
# [3] = Cycle 1 Day 15, Cohort A1, 115 mg/m2 per dose, individual patients, in ng/mL
# [4] = Cycle 1 Day 15, Cohort A2, 100 mg per dose, individual patients
# [5] = Cycle 1 Day 15, Cohort A2, 150 mg per dose, individual patients
# [6] = Cycle 1 Day 15, Cohort A2, 150 mg per dose, individual patients, in h (unit assumed)
# [7] = Cycle 1 Day 15, patient N0773, Cohort B2, 115 mg/m2 per dose, Dose 75
# [8] = Cycle 1 Day 15, patient N0773, Cohort B2, 115 mg/m2 per dose, Dose 75, in h (unit assumed)
# [9] = human, in vivo, 115 mg/m2, Cohort A1, 115 mg/m2 per dose, C1D15, Geometric Mean, N 6
# [10] = human, in vivo, 115 mg/m2, Cohort A1, 115 mg/m2 per dose, C1D15, Median, N 6
# [11] = human, in vivo, 115 mg/m2, Cohort B2, 115 mg/m2 per dose, C1D15, Geometric Mean, N 6
# [12] = human, in vivo, 115 mg/m2, Cohort B2, 115 mg/m2 per dose, C1D15, Median, N 6
# [13] = human, in vivo, 115 mg/m2, Cycle 1 Day 1, Cohort B2, 115 mg/m2 per dose
smiles,measurement,setting,value
"C[C@H]1Oc2cc(cnc2N)-c2c(nn(C)c2C#N)CN(C)C(=O)c2ccc(F)cc21 [Lorlatinib, (10R)-7-amino-12-fluoro-2,10,16-trimethyl-15-oxo-10,15,16,17-tetrahydro-2H-8,4-(metheno)pyrazolo[4,3-h][2,5,11]-benzoxadiazacyclotetradecine-3-carbonitrile]",Swing,[1],8.184
same,Swing_Tau,[1],8.184
same,Tlast,[1],24 h
same,Vz_F,[1],274.2
same,HL_Lambda_z,[2],12
same,Tmin,[2],0
same,Lambda_z,[1],0.05778
same,Cavg,[3],341.9
same,Clast,[3],147
same,Clast_pred,[3],144.8
same,Cmin,[3],147
same,Ctau,[3],147
same,Tlag,[1],0 h
same,AUC_TAU_%Extrap,[4],0%
same,Tlast,[4],24 h
same,Tmax,"Cycle 1 Day 15, Cohort A2, 100 mg per dose, individual patients, in h (unit assumed)",2
same,Tmax,"Cycle 1 Day 15, Cohort A2, 100 mg per dose, individual patients, listed as lorlatinib, in h (unit assumed)",2
same,Tlag,[4],0 h
same,AUC_TAU_%Extrap,[5],0%
same,Tlast,[5],24 h
same,MRTINF_obs,[6],20.95
same,MRTINF_pred,[6],20.85
same,Tmax,[6],2
same,Tmin,[6],0
same,Clast_pred,"Cycle 1 Day 15, Cohort A2, 150 mg per dose, individual patients, in ng/mL",129.9
same,AUCINF_pred,"Cycle 1 Day 15, Cohort A2, 150 mg per dose, individual patients, in ng·h/mL (unit assumed)",8874
same,Tlag,[5],0 h
same,AUMC_TAU,[7],28139.0694
same,Accumulation_Index,[7],1.002
same,CLss_F,[7],10.79
same,Cmax_D,[7],23.73
same,Fluctuation%,[7],464.7
same,Fluctuation%_Tau,[7],613.5
same,Swing,[7],3.101
same,Swing_Tau,[7],559.2
same,Tlast,[7],6 h
same,Vz_F,[7],40.19
same,HL_Lambda_z,[8],2.582
same,Tmin,[8],6
same,Lambda_z,[7],0.2684
same,Cavg,"Cycle 1 Day 15, patient N0773, Cohort B2, 115 mg/m2 per dose, Dose 75, in ng/mL",289.6
same,Tlag,[7],0 h
same,Tmax,"human, in vivo, 60 mg/m2, Cohort A1, 60 mg/m2 per dose, C1D15, Geometric Mean, N 3, read-out: Tmax",1.59 h
same,Cmax,"human, in vivo, 75 mg/m2, Cycle 1 Day 1, Cohort A1, 75 mg/m2 per dose, individual patients",467 ng/mL
same,AUC,[9],8640 ng·h/mL
same,Cmax,[9],1210 ng/mL
same,Tmax,"human, in vivo, 115 mg/m2, Cohort A1, 115 mg/m2 per dose, C1D15, Geometric Mean, N 6, read-out: Tmax",1.59 h
same,AUC,[10],8570 ng·h/mL
same,Cmax,[10],1280 ng/mL
same,Tmax,"human, in vivo, 115 mg/m2, Cohort A1, 115 mg/m2 per dose, C1D15, Median, N 6, read-out: Tmax",1.5 h
same,AUC,[11],7950 ng·h/mL
same,Cmax,[11],1460 ng/mL
same,Tmax,"human, in vivo, 115 mg/m2, Cohort B2, 115 mg/m2 per dose, C1D15, Geometric Mean, N 6, read-out: Tmax",1.12 h
same,AUC,[12],6940 ng·h/mL
same,Cmax,[12],1560 ng/mL
same,Tmax,"human, in vivo, 115 mg/m2, Cohort B2, 115 mg/m2 per dose, C1D15, Median, N 6, read-out: Tmax",1 h
same,MRT last,"human, in vivo, 115 mg/m2, Cycle 1 Day 1, Cohort A1, 115 mg/m2 per dose",11.1 h
same,Tmax,"human, in vivo, 115 mg/m2, Cycle 1 Day 1, Cohort A1, 115 mg/m2 per dose, read-out: Tmax",1 h
same,AUC(0-t),[13],17700 ng·h/mL
same,MRT last,[13],8.5 h

# — publication PMC10202811 (Nature Medicine, 2023)
